Data as given in ChEMBL document CHEMBL1201862, “PubChem BioAssay data set” (2004).
Calls of active or inactive are those of the source.

Key:
Format in all cases: functional
[1] = target: 5'-AMP-activated protein kinase catalytic subunit alpha-1 (Homo sapiens, UniProt Q13131)
[2] = target: Tyrosine-protein kinase ABL1 (Homo sapiens, UniProt P00519)
[3] = target: Serine/threonine-protein kinase PAK 4 (Homo sapiens, UniProt O96013);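 also: value obtained within a kinome profiling panel in which PAK4 was one of the panel members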
[4] = target: 3-phosphoinositide-dependent protein kinase 1 (Homo sapiens, UniProt O15530);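 also: value comes from the Navigating the Kinome panel, PDPK1 member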
Sequence of 3-phosphoinositide-dependent protein kinase 1 (O15530 whole entry): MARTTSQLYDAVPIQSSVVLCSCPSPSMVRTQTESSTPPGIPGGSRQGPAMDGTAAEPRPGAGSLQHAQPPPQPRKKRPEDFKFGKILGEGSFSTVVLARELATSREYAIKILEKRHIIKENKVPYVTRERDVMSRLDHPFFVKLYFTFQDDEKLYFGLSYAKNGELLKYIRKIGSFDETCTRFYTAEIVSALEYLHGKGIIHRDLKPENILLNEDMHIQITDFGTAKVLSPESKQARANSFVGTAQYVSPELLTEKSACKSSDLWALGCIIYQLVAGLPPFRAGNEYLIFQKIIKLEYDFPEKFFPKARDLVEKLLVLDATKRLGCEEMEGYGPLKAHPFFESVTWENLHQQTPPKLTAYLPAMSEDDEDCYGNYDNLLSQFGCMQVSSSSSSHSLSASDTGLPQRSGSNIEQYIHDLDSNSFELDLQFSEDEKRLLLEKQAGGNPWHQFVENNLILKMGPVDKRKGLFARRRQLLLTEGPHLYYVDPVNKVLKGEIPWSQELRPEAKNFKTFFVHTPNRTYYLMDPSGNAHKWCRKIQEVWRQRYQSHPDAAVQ

[5] = target: Cyclin-dependent kinase 1 (Homo sapiens, UniProt P06493);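 also: Kinome-wide panel profiling, with the target listed as panel member CDC2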
Sequence of Cyclin-dependent kinase 1 (P06493 whole entry): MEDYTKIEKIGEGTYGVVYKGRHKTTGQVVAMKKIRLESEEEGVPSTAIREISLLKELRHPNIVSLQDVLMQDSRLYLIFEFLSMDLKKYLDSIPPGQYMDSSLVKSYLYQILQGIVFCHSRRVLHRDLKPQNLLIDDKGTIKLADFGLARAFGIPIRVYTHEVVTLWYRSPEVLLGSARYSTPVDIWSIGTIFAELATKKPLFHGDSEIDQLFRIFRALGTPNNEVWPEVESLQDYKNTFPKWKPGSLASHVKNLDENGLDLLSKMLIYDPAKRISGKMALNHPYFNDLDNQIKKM

[6] = target: Serine/threonine-protein kinase PLK4 (Homo sapiens, UniProt O00444);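 also: PLK4 measured as one member of a kinome-wide kinase profiling panel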
[7] = target: Casein kinase I isoform delta (Homo sapiens, UniProt P48730);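 also: measured as one member (CSNK1D) of a kinome panel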
[8] = target: Tyrosine-protein kinase Fyn (Homo sapiens, UniProt P06241)
[9] = target: Cyclin-dependent kinase 2 (Homo sapiens, UniProt P24941);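 also: CDK2 measured as one member of a broad kinome profiling panel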
[10] = target: Casein kinase II subunit alpha (Homo sapiens, UniProt P68400)
[11] = target: Serine/threonine-protein kinase Chk1 (Homo sapiens, UniProt O14757);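 also: measured as one member of a kinome-wide kinase profiling panel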
[12] = target: High affinity nerve growth factor receptor (Homo sapiens, UniProt P04629);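 also: NTRK1 tested as one member of a kinome-wide profiling panel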
[13] = target: Serine/threonine-protein kinase Chk2 (Homo sapiens, UniProt O96017);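 also: CHEK2 entry within a kinome-wide screening panel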
Sequence of Serine/threonine-protein kinase Chk2 (O96017 whole entry): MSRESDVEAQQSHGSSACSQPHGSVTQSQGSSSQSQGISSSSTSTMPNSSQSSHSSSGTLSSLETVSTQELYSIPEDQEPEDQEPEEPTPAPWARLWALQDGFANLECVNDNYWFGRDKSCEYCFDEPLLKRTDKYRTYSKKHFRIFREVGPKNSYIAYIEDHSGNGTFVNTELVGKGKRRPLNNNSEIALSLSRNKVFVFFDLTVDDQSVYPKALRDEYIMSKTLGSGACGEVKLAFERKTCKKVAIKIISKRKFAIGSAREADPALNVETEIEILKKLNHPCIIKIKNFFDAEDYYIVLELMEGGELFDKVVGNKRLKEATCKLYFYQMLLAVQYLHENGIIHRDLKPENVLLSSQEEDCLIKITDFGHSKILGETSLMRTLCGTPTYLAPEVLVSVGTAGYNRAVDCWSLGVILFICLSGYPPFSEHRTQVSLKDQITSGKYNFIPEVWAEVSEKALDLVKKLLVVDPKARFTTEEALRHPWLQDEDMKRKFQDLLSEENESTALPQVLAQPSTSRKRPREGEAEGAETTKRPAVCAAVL

[14] = target: Insulin receptor (Homo sapiens, UniProt P06213);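 also: insulin receptor kinase tested as one member of a kinome-wide kinase panel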
[15] = target: Receptor-type tyrosine-protein kinase FLT3 (Homo sapiens, UniProt P36888);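 also: FLT3 was tested as one member of a kinome-wide kinase panel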
[16] = target: Ephrin type-A receptor 2 (Homo sapiens, UniProt P29317);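 also: EPHA2 tested as one member of a kinome-wide kinase panel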
Sequence of Ephrin type-A receptor 2 (P29317 whole entry): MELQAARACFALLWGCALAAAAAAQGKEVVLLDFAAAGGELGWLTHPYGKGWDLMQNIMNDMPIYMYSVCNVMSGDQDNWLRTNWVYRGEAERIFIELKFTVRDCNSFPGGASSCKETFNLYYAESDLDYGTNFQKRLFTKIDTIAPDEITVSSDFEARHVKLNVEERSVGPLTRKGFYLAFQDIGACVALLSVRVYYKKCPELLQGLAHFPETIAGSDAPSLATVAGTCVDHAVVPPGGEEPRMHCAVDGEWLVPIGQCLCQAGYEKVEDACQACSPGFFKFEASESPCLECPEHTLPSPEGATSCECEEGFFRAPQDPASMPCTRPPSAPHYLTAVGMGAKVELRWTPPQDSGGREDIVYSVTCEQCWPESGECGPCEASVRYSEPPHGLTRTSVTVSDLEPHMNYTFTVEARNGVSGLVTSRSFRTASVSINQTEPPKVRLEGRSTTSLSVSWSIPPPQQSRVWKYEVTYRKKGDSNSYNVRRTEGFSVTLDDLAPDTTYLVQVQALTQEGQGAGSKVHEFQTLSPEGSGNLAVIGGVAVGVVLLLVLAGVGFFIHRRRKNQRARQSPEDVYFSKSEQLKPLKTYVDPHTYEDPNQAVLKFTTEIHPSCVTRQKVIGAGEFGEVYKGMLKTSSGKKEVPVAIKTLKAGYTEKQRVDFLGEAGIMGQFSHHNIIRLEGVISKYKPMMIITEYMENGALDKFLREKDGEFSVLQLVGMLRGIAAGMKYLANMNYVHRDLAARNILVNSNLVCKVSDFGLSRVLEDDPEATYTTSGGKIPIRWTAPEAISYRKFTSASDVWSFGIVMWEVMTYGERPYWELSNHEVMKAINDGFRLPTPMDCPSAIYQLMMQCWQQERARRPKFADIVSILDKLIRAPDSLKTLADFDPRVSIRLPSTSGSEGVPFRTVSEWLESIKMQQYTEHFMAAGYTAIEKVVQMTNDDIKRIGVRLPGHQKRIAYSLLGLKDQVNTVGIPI

[17] = target: Hepatocyte growth factor receptor (Homo sapiens, UniProt P08581);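 also: kinase panel profiling across the kinome, with MET as the panel member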
[18] = target: MAP kinase-activated protein kinase 3 (Homo sapiens, UniProt Q16644);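 also: value comes from a kinome-wide profiling panel in which MAPKAPK3 is one of the panel members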
[19] = target: Death-associated protein kinase 3 (Homo sapiens, UniProt O43293);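 also: measured as one member of a kinome-wide profiling panel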
Sequence of Death-associated protein kinase 3 (O43293 whole entry): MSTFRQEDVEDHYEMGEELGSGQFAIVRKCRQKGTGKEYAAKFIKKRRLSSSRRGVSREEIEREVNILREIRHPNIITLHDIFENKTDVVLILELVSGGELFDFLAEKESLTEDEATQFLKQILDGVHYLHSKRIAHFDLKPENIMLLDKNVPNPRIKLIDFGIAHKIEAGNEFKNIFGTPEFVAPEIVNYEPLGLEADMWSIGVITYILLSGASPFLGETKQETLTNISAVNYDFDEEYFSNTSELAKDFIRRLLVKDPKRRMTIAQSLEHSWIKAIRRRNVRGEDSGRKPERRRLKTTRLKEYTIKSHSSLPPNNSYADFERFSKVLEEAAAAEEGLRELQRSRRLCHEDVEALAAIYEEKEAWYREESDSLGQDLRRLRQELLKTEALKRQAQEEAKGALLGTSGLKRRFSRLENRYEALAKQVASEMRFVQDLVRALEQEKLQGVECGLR

[20] = target: Serine/threonine-protein kinase D2 (Homo sapiens, UniProt Q9BZL6);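 also: measured against PRKD2 as one member of a kinome-wide kinase profiling panel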
[21] = target: Mitogen-activated protein kinase kinase kinase kinase 2 (Homo sapiens, UniProt Q12851);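 also: measured as one member of a kinome-wide kinase panel, with MAP4K2 as the panel entry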
[22] = target: Vascular endothelial growth factor receptor 2 (Homo sapiens, UniProt P35968)
[23] = target: Casein kinase I isoform alpha (Homo sapiens, UniProt P48729)
[24] = target: Serine/threonine-protein kinase TAO1 (Homo sapiens, UniProt Q7L7X3)
[25] = target: Tyrosine-protein kinase Lyn (Homo sapiens, UniProt P07948);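 also: lyn as one member of a kinase panel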
[26] = target: Serine/threonine-protein kinase pim-2 (Homo sapiens, UniProt Q9P1W9);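 also: value comes from a broad kinase panel profiling study in which PIM2 was one of the panel members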
Sequence of Serine/threonine-protein kinase pim-2 (Q9P1W9 whole entry): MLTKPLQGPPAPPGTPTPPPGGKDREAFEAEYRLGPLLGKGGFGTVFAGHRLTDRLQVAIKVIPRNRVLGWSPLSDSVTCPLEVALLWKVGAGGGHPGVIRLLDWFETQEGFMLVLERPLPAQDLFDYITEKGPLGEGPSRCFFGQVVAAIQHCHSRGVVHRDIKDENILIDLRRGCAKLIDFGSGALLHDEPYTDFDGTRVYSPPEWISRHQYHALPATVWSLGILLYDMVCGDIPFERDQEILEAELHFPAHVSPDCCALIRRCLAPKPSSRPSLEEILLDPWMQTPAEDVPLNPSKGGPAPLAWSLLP

[27] = target: Serine/threonine-protein kinase Nek2 (Homo sapiens, UniProt P51955)
[28] = target: Tyrosine-protein kinase JAK2 (Homo sapiens, UniProt O60674);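 also: JAK2 tested as one member of a kinase panel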
[29] = target: Serine/threonine-protein kinase 3 (Homo sapiens, UniProt Q13188);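 also: measured as one member of a kinome-wide kinase panel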
Sequence of Serine/threonine-protein kinase 3 (Q13188 whole entry): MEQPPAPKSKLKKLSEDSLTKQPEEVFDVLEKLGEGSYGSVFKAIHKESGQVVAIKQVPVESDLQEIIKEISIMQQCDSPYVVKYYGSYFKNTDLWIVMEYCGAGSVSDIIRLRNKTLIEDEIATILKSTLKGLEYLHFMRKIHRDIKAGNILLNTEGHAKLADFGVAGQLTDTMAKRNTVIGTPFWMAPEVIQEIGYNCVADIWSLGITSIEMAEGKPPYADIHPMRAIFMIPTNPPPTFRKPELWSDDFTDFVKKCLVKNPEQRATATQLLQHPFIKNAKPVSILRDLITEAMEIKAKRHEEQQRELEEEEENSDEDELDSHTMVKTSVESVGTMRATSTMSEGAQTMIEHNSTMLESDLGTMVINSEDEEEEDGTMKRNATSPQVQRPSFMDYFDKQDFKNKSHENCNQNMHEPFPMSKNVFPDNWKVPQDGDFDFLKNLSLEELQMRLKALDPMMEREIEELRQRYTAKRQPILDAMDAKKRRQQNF

[30] = target: T1, Aurora kinase A (Homo sapiens, UniProt O14965);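 also: value from the Navigating the Kinome kinase panel profiling, panel entry STK6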
T1 sequence (O14965 whole entry): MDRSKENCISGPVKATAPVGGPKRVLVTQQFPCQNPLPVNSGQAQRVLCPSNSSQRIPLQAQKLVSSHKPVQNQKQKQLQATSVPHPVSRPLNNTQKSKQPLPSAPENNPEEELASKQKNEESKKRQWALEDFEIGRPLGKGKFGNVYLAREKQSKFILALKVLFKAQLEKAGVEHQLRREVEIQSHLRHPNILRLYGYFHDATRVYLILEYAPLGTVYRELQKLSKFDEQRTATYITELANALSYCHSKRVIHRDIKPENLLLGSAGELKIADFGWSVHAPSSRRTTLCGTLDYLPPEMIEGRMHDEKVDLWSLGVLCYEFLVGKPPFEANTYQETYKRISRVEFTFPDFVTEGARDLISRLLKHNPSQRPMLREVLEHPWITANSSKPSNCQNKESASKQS

[31] = target: Receptor tyrosine-protein kinase erbB-4 (Homo sapiens, UniProt Q15303);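 also: ERBB4 member of a kinome-wide kinase profiling panel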
[32] = target: Rho-associated protein kinase 1 (Homo sapiens, UniProt Q13464);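 also: measured within a broad kinome-wide panel profiling many kinases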
[33] = target: Fibroblast growth factor receptor 3 (Homo sapiens, UniProt P22607)
[34] = target: Mitogen-activated protein kinase 9 (Homo sapiens, UniProt P45984);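 also: value from a kinome panel profiling assay, MAPK9 panel entry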
[35] = target: Receptor tyrosine-protein kinase erbB-2 (Homo sapiens, UniProt P04626); experiment: Navigating the Kinome. Panel member name: ERBB2
Sequence of Receptor tyrosine-protein kinase erbB-2 (P04626 whole entry): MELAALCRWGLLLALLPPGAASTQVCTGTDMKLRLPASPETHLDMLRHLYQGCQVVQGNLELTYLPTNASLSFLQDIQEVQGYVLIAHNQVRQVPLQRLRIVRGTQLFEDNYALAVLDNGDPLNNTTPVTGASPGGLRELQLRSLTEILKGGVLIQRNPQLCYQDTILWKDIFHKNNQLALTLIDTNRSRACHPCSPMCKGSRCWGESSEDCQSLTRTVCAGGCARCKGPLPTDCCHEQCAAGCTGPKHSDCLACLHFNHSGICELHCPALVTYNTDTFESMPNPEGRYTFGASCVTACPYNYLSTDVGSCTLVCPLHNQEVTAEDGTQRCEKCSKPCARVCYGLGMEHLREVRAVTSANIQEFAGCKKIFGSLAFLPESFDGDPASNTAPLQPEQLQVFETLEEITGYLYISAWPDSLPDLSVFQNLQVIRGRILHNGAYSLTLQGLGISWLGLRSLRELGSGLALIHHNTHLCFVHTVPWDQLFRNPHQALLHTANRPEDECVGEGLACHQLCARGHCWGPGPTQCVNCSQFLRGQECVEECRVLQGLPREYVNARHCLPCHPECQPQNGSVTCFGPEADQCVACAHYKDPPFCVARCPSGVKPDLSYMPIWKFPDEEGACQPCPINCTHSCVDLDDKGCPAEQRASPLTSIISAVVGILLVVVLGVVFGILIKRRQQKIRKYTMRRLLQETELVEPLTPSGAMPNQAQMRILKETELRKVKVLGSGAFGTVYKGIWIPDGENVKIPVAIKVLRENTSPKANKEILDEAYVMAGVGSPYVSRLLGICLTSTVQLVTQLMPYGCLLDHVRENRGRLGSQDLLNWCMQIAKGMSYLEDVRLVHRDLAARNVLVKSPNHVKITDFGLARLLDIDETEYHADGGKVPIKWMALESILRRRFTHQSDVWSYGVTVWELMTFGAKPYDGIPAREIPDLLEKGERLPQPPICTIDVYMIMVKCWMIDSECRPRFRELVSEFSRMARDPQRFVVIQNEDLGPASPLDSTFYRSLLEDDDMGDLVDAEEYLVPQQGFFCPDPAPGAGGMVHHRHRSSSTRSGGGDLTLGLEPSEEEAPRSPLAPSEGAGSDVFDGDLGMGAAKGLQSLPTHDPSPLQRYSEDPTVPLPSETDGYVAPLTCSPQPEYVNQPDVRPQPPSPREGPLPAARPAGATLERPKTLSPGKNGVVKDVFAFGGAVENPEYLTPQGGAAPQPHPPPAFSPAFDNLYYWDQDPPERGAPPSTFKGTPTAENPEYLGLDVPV

[36] = target: Fibroblast growth factor receptor 1 (Homo sapiens, UniProt P11362)
[37] = target: Protein kinase C iota type (Homo sapiens, UniProt P41743);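 also: measured within a kinome-wide kinase panel, PRKCI as panel member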
[38] = target: Mitogen-activated protein kinase 12 (Homo sapiens, UniProt P53778);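 also: measured as one member of a kinome-wide kinase profiling panel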
[39] = target: BDNF/NT-3 growth factors receptor (Homo sapiens, UniProt Q16620);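 also: NTRK2 measured as one member of a broad kinome-wide kinase profiling panel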
[40] = target: Cyclin-dependent kinase 5 (Homo sapiens, UniProt Q00535);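 also: CDK5 measured as one member of a kinase profiling panel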
[41] = target: Serine/threonine-protein kinase PAK 1 (Homo sapiens, UniProt Q13153)
[42] = target: Ribosomal protein S6 kinase alpha-3 (Homo sapiens, UniProt P51812);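 also: measured within a kinome-wide profiling panel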

In the case of `Cc1n[nH]c2cnc(-c3cncc(OCC(N)Cc4cccc(C(F)(F)F)c4)c3)cc12` (centres undefined), the Ki [1] is reported as 12.6 nM (active), the Ki [2] is reported as > 631 nM (inactive) and the Ki [3] is reported as 398 nM (active). For the same molecule, the Ki [4] was 200 nM (active), the Ki [5] was 31.6 nM (active) and the Ki [6] was 2510 nM (active). For the same molecule, the Ki [7] was 316 nM (active), the Ki [8] was > 794 nM (inactive) and the Ki [9] was 10 nM (active). For the same molecule, the Ki [10] was 794 nM (active), the Ki [11] was 3980 nM (active) and the Ki [12] was > 2510 nM (inactive). The Ki [13] was 79.4 nM (active), the Ki [14] was > 5010 nM (inactive) and the Ki [15] was 1580 nM (active). The Ki [16] was > 3160 nM (inactive), the Ki [17] was > 3160 nM (inactive) and the Ki [18] was > 10000 nM (inactive). The Ki [19] was 3.98 nM (active), the Ki [20] was 251 nM (active) and the Ki [21] was 63.1 nM (active). The Ki [22] was > 7940 nM (inactive), the Ki [23] was 2510 nM (active) and the Ki [24] was 31.6 nM (active). The Ki [25] was > 1580 nM (inactive), the Ki [26] was 1.26 nM (active) and the Ki [27] was > 10000 nM (inactive). For the same molecule, the Ki [28] was > 1580 nM (inactive), the Ki [29] was 79.4 nM (active) and the Ki [30] was > 1580 nM (inactive). The Ki [31] was > 3980 nM (inactive), the Ki [32] was 7.94 nM (active) and the Ki [33] was > 2000 nM (inactive). The Ki [34] was > 3980 nM (inactive), the Ki [35] was > 1580 nM (inactive) and the Ki [36] was > 5010 nM (inactive). For the same molecule, the Ki [37] was 251 nM (active), the Ki [38] was 1000 nM (active) and the Ki [39] was > 5010 nM (inactive). For the same molecule, the Ki [40] was 63.1 nM (active) and the Ki [41] was 2000 nM (active).
In the case of `Cc1c(C=O)c(O)n2c(nc3ccccc32)c1C#N`, the Ki [1] is reported as > 10000 nM (inactive), the Ki [2] is reported as > 631 nM (inactive) and the Ki [3] is reported as > 5010 nM (inactive). The Ki [4] was > 3980 nM (inactive), the Ki [5] was > 7940 nM (inactive) and the Ki [6] was 794 nM (active). The Ki [7] was 2000 nM (active), the Ki [8] was 398 nM (active) and the Ki [9] was > 7940 nM (inactive). For the same molecule, the Ki [10] was 63.1 nM (active), the Ki [11] was > 7940 nM (inactive) and the Ki [12] was > 2510 nM (inactive). The Ki [13] was > 10000 nM (inactive), the Ki [14] was > 5010 nM (inactive) and the Ki [15] was 631 nM (active). The Ki [16] was > 3160 nM (inactive), the Ki [17] was > 3160 nM (inactive) and the Ki [18] was > 10000 nM (inactive). The Ki [19] was 1000 nM (active), the Ki [20] was > 10000 nM (inactive) and the Ki [22] was > 7940 nM (inactive). For the same molecule, the Ki [25] was 1580 nM (active), the Ki [26] was > 1580 nM (inactive) and the Ki [27] was > 10000 nM (inactive). For the same molecule, the Ki [28] was > 1580 nM (inactive), the Ki [29] was 5010 nM (active) and the Ki [30] was 794 nM (active). The Ki [31] was > 3980 nM (inactive), the Ki [32] was > 10000 nM (inactive) and the Ki [33] was > 2000 nM (inactive). For the same molecule, the Ki [34] was > 3980 nM (inactive), the Ki [35] was > 1580 nM (inactive) and the Ki [36] was > 5010 nM (inactive). The Ki [42] was 5010 nM (active), the Ki [38] was > 6310 nM (inactive) and the Ki [39] was > 5010 nM (inactive). The Ki [40] was > 10000 nM (inactive) and the Ki [41] was > 10000 nM (inactive).
